Experimental data published in US20210253598A1, “ARYL ANNULATED MACROCYCLIC INDOLE DERIVATIVES” (priority 2017, published 2021).
Values joined by “and” are separate entries in the source; they are usually repeats but may differ in a detail not shown here. Identical values can stand only once. Counter-ions that a name gives are not always drawn. Like-named read-outs stand apart in the source and are kept apart here.

What was measured:
[1] = molecular target: BCL-XL (Homo sapiens, UniProt Q07817); test: Protein-protein interaction assay BCL-XL/Bad BH3 peptide, TR-FRET (BCL-XL assay, Assay 2); assay type: binding; conditions: His-BCL-XL / Bad BH3 peptide, median
Chain of BCL-XL (Q07817 1-212): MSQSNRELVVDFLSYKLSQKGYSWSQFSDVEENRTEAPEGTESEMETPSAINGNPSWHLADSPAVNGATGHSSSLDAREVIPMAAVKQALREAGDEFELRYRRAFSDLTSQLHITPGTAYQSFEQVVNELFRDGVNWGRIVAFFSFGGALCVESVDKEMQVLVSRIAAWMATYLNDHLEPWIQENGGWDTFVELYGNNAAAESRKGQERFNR

[2] = molecular target: BCL-2 (Homo sapiens, UniProt P10415); test: Protein-protein interaction assay BCL-2/Bad BH3 peptide, TR-FRET (BCL-2 assay, Assay 3); assay type: binding; conditions: His-BCL-2 / Bad BH3 peptide, median
Chain of BCL-2 (P10415 1-211): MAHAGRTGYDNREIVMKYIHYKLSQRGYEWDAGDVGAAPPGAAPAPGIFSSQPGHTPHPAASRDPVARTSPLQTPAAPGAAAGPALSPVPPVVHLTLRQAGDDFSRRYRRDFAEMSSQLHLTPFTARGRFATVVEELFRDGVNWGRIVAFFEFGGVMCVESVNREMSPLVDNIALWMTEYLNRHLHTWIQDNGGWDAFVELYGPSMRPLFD

[3] = tested on: SUDHL5; test: Induction of caspase-3/7 activity in SUDHL5 cells (Assay 4); assay type: cell-based
How it was run: (§1)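 DLBCL lines SUDHL5 and SUDHL10 were treated with compound for 3 h at 37 °C. Caspase-3/7 activity was then read by Caspase-Glo 3/7 luminescence after 1 h at 37 °C. Medium-only background was subtracted and values were normalized to the mean of DMSO-treated cells.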

[4] = tested on: SUDHL10; test: Induction of caspase-3/7 activity in SUDHL10 cells (Assay 4); assay type: cell-based
How it was run: as §1

[5] = tested on: SUDHL5; test: Induction of cytotoxicity in SUDHL5 cells, CellTiter-Glo (Assay 6); assay type: cell-based
How it was run: (§2)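 Cells plated and held overnight at 37 °C, then compound-treated for 5 h at 37 °C. Viability measured by CellTiter-Glo luminescence after 15 min shaking at room temperature; cell-free medium as background control.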

[6] = tested on: SUDHL10; test: Induction of cytotoxicity in SUDHL10 cells, CellTiter-Glo (Assay 6); assay type: cell-based
How it was run: as §2

[7] = tested on: SUDHL5; test: Anti-proliferative effect in SUDHL5 cells, CellTiter-Glo (Assay 7); assay type: cell-based
How it was run: (§3)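 Cells plated and incubated overnight at 37° C, then exposed to compound for 72 hours. Viability read as CellTiter-Glo luminescence, with a day 0 plate as time-zero reference. IC50 calculated with day 0 values and DMSO control values as references.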

[8] = tested on: A2780; test: Anti-proliferative effect in A2780 cells, CellTiter-Glo (Assay 7); assay type: cell-based
How it was run: as §3

[9] = molecular target: MCL-1 (Homo sapiens, UniProt Q07820, K194A/K197A/R201A); test: Protein-protein interaction assay MCL-1/Noxa BH3 peptide, TR-FRET (MCL-1 assay, Assay 1); assay type: binding; conditions: MCL-1 Assay [M] (median), MBP-MCL-1 / Noxa BH3 peptide
Chain of MCL-1 (Q07820 173-321 K194A/K197A/R201A, looked up): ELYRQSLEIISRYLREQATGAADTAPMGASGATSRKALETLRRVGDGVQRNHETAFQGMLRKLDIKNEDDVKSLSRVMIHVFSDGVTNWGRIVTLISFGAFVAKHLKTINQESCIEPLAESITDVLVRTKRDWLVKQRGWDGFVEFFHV
How it was run: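 Human MBP-fused MCL-1 (aa 173-321; 1 nM final) was pre-incubated 10 min at 22 °C with compound in pH 7 Tris buffer containing NaCl, KF, Tween-20, DTT and BGG. Displacement of biotinylated Noxa BH3 peptide was read by TR-FRET (anti-MBP-Eu cryptate/streptavidin-XL665) after 1 h at 22 °C plus overnight at 4 °C. IC50 came from four-parameter fits against DMSO controls.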

[10] = tested on: MV-4-11; test: Anti-proliferative effect in MV-4-11 cells, CellTiter-Glo (Assay 7); assay type: cell-based
How it was run: as §3

[11] = tested on: AMO-1; test: Anti-proliferative effect in AMO-1 cells, CellTiter-Glo (Assay 7); assay type: cell-based
Protocol: Assessment of the Anti-Proliferative Effect of Compounds in Different Cell Lines
The impact of compounds on the proliferation of different cell lines was assessed using the CellTiter-Glo® Luminescent Cell Viability reagent from Promega (G7573).
In parallel, cells were plated in a reference (day 0) plate for time zero determination. Cells were incubated in a humidified incubator at 37° C. overnight.
Rim wells were excluded. The cells were incubated for 72 hours in a humidified incubator at 37° C. The day 0 plate was measured by adding 30 μL/well of CTG solution (CellTiter-Glo® Luminescent Cell Viability reagent, Promega G7573) to time zero wells in the reference plate followed by a 10 minutes incubation and luminescence reading at 0.1 ms. using the PHERAstar FS microplate reader (BMG Labtech).
After 72 hours incubation, the treated plates were measured in the same way as the day 0 plate mentioned above. The Bella DRC Master Sheet was used to calculate IC50s, with CI=day 0 values and C0=DMSO control values.

[12] = Homo sapiens, SU-DHL-5, 3 h, SUDHL5, 3 hours treatment, Caspase-Glo 3/7, median, read-out: Caspase SUDHL5 [M] (median)
[13] = Homo sapiens, SU-DHL10, 3 h, SUDHL10, 3 hours treatment, Caspase-Glo 3/7, median, read-out: Caspase SUDHL10 [M] (median)
[14] = Homo sapiens, SU-DHL-5, 5 h, SUDHL5, 5 hours incubation, median, read-out: Cytotox SUDHL5 [M] (median)
[15] = Homo sapiens, SU-DHL10, 5 h, SUDHL10, 5 hours incubation, median, read-out: Cytotox SUDHL10 [M] (median)
[16] = Homo sapiens, SU-DHL-5, 72 h, SUDHL5, 72 hours incubation, CellTiter-Glo, median, read-out: Antiproli SUDHL5 [M] (median)
[17] = A2780, 72 hours incubation, CellTiter-Glo; several values per example; read-out: Antiproli A2780
[18] = Homo sapiens, A2780, 72 h, A2780, 72 hours incubation, CellTiter-Glo; several values per example; read-out: Antiproli A2780
[19] = SUDHL5, 3 hours treatment, Caspase-Glo 3/7, median, read-out: Caspase SUDHL5 [M] (median)
[20] = SUDHL10, 3 hours treatment, Caspase-Glo 3/7, median, read-out: Caspase SUDHL10 [M] (median)
[21] = read-out: Caspase SUDHL5 [M] (median), SUDHL5, 3 hours treatment, Caspase-Glo 3/7
[22] = read-out: Caspase SUDHL10 [M] (median), SUDHL10, 3 hours treatment, Caspase-Glo 3/7
[23] = SUDHL5, 5 hours incubation, median, read-out: Cytotox SUDHL5 [M] (median)
[24] = SUDHL10, 5 hours incubation, median, read-out: Cytotox SUDHL10 [M] (median)
[25] = read-out: Antiproli SUDHL5 [M] (median), SUDHL5, 72 hours incubation, CellTiter-Glo
[26] = read-out: Antiproli MV-4-11; MV-4-11, 72 hours incubation, CellTiter-Glo; several values per example
[27] = read-out: Antiproli AMO-1; AMO-1, 72 hours incubation, CellTiter-Glo; several values per example
[28] = read-out: Antiproli A2780; A2780, 72 hours incubation, CellTiter-Glo; several values per example

| Compound | IC50 [1] | IC50 [2] | IC50 [9] | EC50 [3, 21] | EC50 [4, 22] | IC50 [5, 23] | IC50 [6, 24] | IC50 [7, 25] | IC50 [10, 26] | IC50 [11, 27] | IC50 [8, 28] | also measured |
| --- | --- | --- | --- | --- | --- | --- | --- | --- | --- | --- | --- | --- |
| Cc1c2c(nn1C)COCc1nc3ccccc3nc1Cn1c(C(=O)O)c(CCCOc3cccc4ccccc34)c3cccc-2c31 (racemic) [Example 10, (rac)-4,5-Dimethyl-19-[3-(naphthalen-1-yloxy)propyl]-5,7,9,16-tetrahydroindolo[1′,7′:6,7,8]-pyrazolo[4′,3′:9,10][1,6]oxazacycloundecino[3,4-b]quinoxaline-18-carboxylic Acid] | > 20 µM | > 20 µM | – | – | – | – | – | – | – | – | – | EC50 [3, 12]: 4.3e-06 M; EC50 [4, 13]: 1.8e-05 M; IC50 [5, 14]: 5.6e-06 M; IC50 [6, 15]: 1.4e-05 M; IC50 [7, 16]: 5.1e-06 M; IC50 [8, 17]: 20.6 µM; IC50 [8, 18]: > 33 µM |
| Cc1c2c(nn1C)COCc1ccccc1Cn1c(C(=O)O)c(CCCOc3cccc4c3CCC4)c3ccc(F)c-2c31 (racemic) [Example 61, (rac)-1-(3-((2,3-Dihydro-1H-inden-4-yl)oxy)propyl)-15-fluoro-13,14-dimethyl-4,9,11,13-tetrahydrobenzo[3,4]pyrazolo[4′,3′:9,10][1,6]oxaazacycloundecino[8,7,6-hi]indole-2-carboxylic Acid] | > 20 µM | > 20 µM | 2.1e-09 M | – | – | – | – | – | – | – | – | EC50 [3, 12]: 2.5e-06 M; EC50 [4, 13]: 5.8e-06 M; IC50 [5, 14]: 2.3e-06 M; IC50 [6, 15]: 5e-06 M; IC50 [7, 16]: 2.1e-06 M; IC50 ([10]; Homo sapiens, MV4-11, 72 h, MV-4-11, 72 hours incubation, CellTiter-Glo; several values per example; read-out: Antiproli MV-4-11): 3.57 µM; IC50 [8, 18]: 22.8 µM |
| Cc1c2c(nn1C)CNCc1ccccc1Cn1c(C(=O)O)c(CCCOc3cccc4ccccc34)c3cccc-2c31 (single isomer, unassigned; enantiomer 1) [Example 12, 4,5-Dimethyl-17-[3-(naphthalen-1-yloxy)propyl]-7,8,9,14-tetrahydro-5H-indolo[1,7-bc]pyrazolo-[4,3-e][2,8]benzodiazacycloundecine-16-carboxylic acid-Trifluoroacetic Acid Salt (Enantiomer 1)] | > 20 µM | > 20 µM | 2.9e-09 M | – | – | – | – | – | – | – | – | EC50 [3, 19]: 2.4e-06 M; EC50 [4, 20]: 4.9e-06 M; IC50 ([5]; read-out: Cytotox SUDHL5 [M] (median), SUDHL5, 5 hours incubation): 1.9e-06 M; IC50 ([6]; read-out: Cytotox SUDHL10 [M] (median), SUDHL10, 5 hours incubation): 5e-06 M |
| Cc1c2c(nn1C)CN(S(=O)(=O)CCN1CCOCC1)Cc1ccccc1Cn1c(C(=O)O)c(CCCOc3cccc4ccccc34)c3cccc-2c31 (single isomer, unassigned; enantiomer 2) [Example 32, (−)-4,5-Dimethyl-8-[2-(morpholin-4-yl)ethanesulfonyl]-17-{3-[(naphthalen-1-yl)oxy]propyl}-7,8,9,14-tetrahydro-5H-indolo[1,7-bc]pyrazolo[4,3-e][2,8]benzodiazacycloundecine-16-carboxylic acid-N-ethylethanamine Salt (Enantiomer 2)] | – | – | 1.8e-07 M | > 3.3e-05 M | > 3.3e-05 M | > 3.3e-05 M | > 3.3e-05 M | 4.5e-06 M | 8.42 µM | 13.5 µM | 10.8 µM | – |
| Cc1c2c(nn1C)COCc1cccnc1Cn1c(C(=O)O)c(CCCOc3cccc4ccccc34)c3ccc(Cl)c-2c31 (single isomer, unassigned; enantiomer 2) [Example 41, 3-Chloro-4,5-dimethyl-17-[3-(naphthalen-1-yloxy)propyl]-5,7,9,14-tetrahydropyrazolo-[4′,3′:9,10]pyrido[3′,2′:3,4][1,6]oxazacycloundecino[8,7,6-hi]indole-16-carboxylic acid-N-ethylethanamine Salt (Enantiomer 2)] | – | – | 5.8e-09 M | 6.1e-06 M | 1.6e-05 M | 6e-06 M | 1.4e-05 M | 5.2e-06 M | 15.9 µM and 8.2 µM | 8.4 µM and 11.2 µM | > 33 µM | – |
| CCc1nn(CCN2CCOCC2)c2c1-c1c(Cl)ccc3c(CCCOc4cccc5cc(F)ccc45)c(C(=O)O)n(c13)Cc1ccccc1COC2 (single isomer, unassigned; enantiomer 2) [Example 53, (+)-3-Chloro-4-ethyl-17-{3-[(6-fluoronaphthalen-1-yl)oxy]propyl}-6-[2-(morpholin-4-yl)ethyl]-6,7,9,14-tetrahydroindolo[7,1-fg]pyrazolo[3,4-d][2,8]benzoxazacycloundecine-16-carboxylic Acid (Enantiomer 2)] | – | – | 8.3e-09 M | – | – | 2.3e-06 M | 6.5e-06 M | – | – | – | – | EC50 [3, 19]: 1.8e-06 M; EC50 [4, 20]: 5.9e-06 M; IC50 ([7]; SUDHL5, 72 hours incubation, CellTiter-Glo, median, read-out: Antiproli SUDHL5 [M] (median)): 2.8e-06 M; IC50 ([10]; MV-4-11, 72 hours incubation, CellTiter-Glo; several values per example; read-out: Antiproli MV-4-11): 4.91 µM and 8.2 µM; IC50 ([11]; AMO-1, 72 hours incubation, CellTiter-Glo; several values per example; read-out: Antiproli AMO-1): 9.44 µM; IC50 [8, 17]: 8.15 µM |
| CCc1c2c(nn1C)COCc1ccccc1Cn1c(C(=O)O)c(CCCOc3cccc4ccccc34)c3ccc(F)c-2c31 (single isomer, unassigned; enantiomer 2) [Example 72, (+)-4-Ethyl-3-fluoro-5-methyl-17-{3-[(naphthalen-1-yl)oxy]propyl}-5,7,9,14-tetrahydroindolo[7,1-fg]pyrazolo[3,4-d][2,8]benzoxazacycloundecine-16-carboxylic acid-N-ethylethanamine Salt (Enantiomer 2)] | – | – | 5.2e-09 M | 1.2e-05 M | > 2.8e-05 M | 8.5e-06 M | 2.6e-05 M | 1.2e-05 M | 9.57 µM | 18.9 µM | 15 µM | – |
